Measured values from patent US8785488B2 (Exelixis Patent Company LLC, priority 2009, dated 2014).
Read-outs that look alike come from different tables or passages of the source. Each block holds one compound with its values, some of them ahead of it.

How the values were obtained:
human TGR5 (h-TGR5) = target: T1, human TGR5 (h-TGR5) (Homo sapiens, UniProt Q8TDU6); experiment: TGR5/CRE-Luciferiase Assay (HEK 293 hTGR5/CRE-Luc cells); format: cell-based
T1 construct: expressed in transfected cells
T1 sequence (Q8TDU6 1-330): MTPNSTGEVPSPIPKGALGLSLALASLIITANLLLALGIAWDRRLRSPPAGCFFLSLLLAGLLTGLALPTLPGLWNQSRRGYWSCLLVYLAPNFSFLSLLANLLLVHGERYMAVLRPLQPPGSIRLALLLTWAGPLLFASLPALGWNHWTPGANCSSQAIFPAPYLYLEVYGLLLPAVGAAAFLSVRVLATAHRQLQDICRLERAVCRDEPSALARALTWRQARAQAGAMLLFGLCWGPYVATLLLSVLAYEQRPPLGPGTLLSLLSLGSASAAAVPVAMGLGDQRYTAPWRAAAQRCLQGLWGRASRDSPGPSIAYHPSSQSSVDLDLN
Summary of the method: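 HEK293 cells stably carrying hTGR5 and a CRE-luciferase reporter were exposed to serially diluted compounds (diluted in DMEM with 5% DMSO) for 6 h. Cells were then lysed in luciferase buffer, luminescence was read, and EC50 values were derived from dose-response curves.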

h-TGR5 = target: T2, h-TGR5 (Homo sapiens, UniProt Q8TDU6); experiment: TGR5 cAMP Assay using Cisbio cAMP Dynamic2 htrf kit (hTGR5CRE-luc HEK 293 cells); format: cell-based
T2 construct: expressed in transfected cells
T2 sequence (Q8TDU6 1-330): T1 sequence (Q8TDU6 1-330)
Summary of the method: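 […], 4000 hTGR5CRE-luc HEK 293 cells per well, with 0.5 mM IBMX and d2-cAMP, were incubated 30 min at room temperature with compounds in 8-point half-log series, in quadruplicate.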

[1] = h-TGR5 CRE-Luc EC50, Table 1, read-out: CRE-Luc (EC50)
[2] = h-TGR5 cAMP EC50, Table 1, read-out: cAMP (EC50)

Structure (SMILES): COc1cc(C(C)(C)c2cnc(SCc3c(F)cc(C(=O)NCCCC(NC(=N)N)C(=O)O)cc3Cl)n2-c2ccc(F)cc2)ccc1Cl [N-2-[amino(imino)methyl]-N-5-{[3-chloro-4-({[5-{1-[4-chloro-3-(methyloxy)phenyl]-1-methylethyl}-1-(4-fluorophenyl)-1H-imidazol-2-yl]thio}methyl)-5-fluorophenyl]carbonyl}-L-ornithine]
EC50 (human TGR5 (h-TGR5); [1]): < 100 nM
EC50 (h-TGR5; [2]): < 100 nM

Structure (SMILES): CC(C)(c1ccc(Cl)c(Cl)c1)c1cnc(SCC2CCCN(c3nnn[nH]3)C2)n1-c1ccc(F)cc1 (stereo not shown) [3-[({5-[1-(3,4-dichlorophenyl)-1-methylethyl]-1-(4-fluorophenyl)-1H-imidazol-2-yl}thio)methyl]-1-(1H-tetrazol-5-yl)piperidine]
EC50 (human TGR5 (h-TGR5); [1]): 1000 to 10000 nM
EC50 (h-TGR5; [2]): 1000 to 10000 nM

Structure (SMILES): CC(C)(c1ccc(Cl)c(Cl)c1)c1cnc(SCc2ccc(C(=O)O)c(Cl)c2)n1-c1ccc(F)cc1 [2-chloro-4-[({5-[1-(3,4-dichlorophenyl)-1-methylethyl]-1-(4-fluorophenyl)-1H-imidazol-2-yl}thio)methyl]benzoic acid]
EC50 (human TGR5 (h-TGR5); [1]): 100 to 1000 nM
EC50 (h-TGR5; [2]): 100 to 1000 nM

Structure (SMILES): COc1ccc(C(C)(C)c2cnc(SCc3cc(F)cc(Cl)c3)n2-c2ccc(F)cc2)cc1OC [5-{1-[3,4-bis(methyloxy)phenyl]-1-methylethyl}-2-{[(3-chloro-5-fluorophenyl)methyl]thio}-1-(4-fluorophenyl)-1H-imidazole]
EC50 (human TGR5 (h-TGR5); [1]): < 100 nM
EC50 (h-TGR5; [2]): < 100 nM

Structure (SMILES): COc1cc(C(C)(C)c2cnc(SCc3c(F)cc(OCCNC(=N)N)cc3F)n2-c2ccc(F)cc2)ccc1Cl [1-(2-{[4-({[5-{1-[4-chloro-3-(methyloxy)phenyl]-1-methylethyl}-1-(4-fluorophenyl)-1H-imidazol-2-yl]thio}methyl)-3,5-difluorophenyl]oxy}ethyl)guanidine]
EC50 (human TGR5 (h-TGR5); [1]): < 100 nM
EC50 (h-TGR5; [2]): < 100 nM

Structure (SMILES): CC(C)(c1ccc(C(F)F)c(F)c1)c1cnc(SCc2ccc(S(=O)(=O)NC(=O)NN3CCCC3)cc2Cl)n1-c1ccc(F)cc1 [3-chloro-4-({[5-{1-[4-(difluoromethyl)-3-fluorophenyl]-1-methylethyl}-1-(4-fluorophenyl)-1H-imidazol-2-yl]thio}methyl)-N-[(pyrrolidin-1-ylamino)carbonyl]benzenesulfonamide]
EC50 (human TGR5 (h-TGR5); [1]): 100 to 1000 nM
EC50 (h-TGR5; [2]): 100 to 1000 nM

Structure (SMILES): COc1cc(-n2c(C(C)(C)c3ccc(F)c(Cl)c3)cnc2SCc2c(F)cc(CCCN(C)C)cc2F)ccc1F [3-{4-[({5-[1-(3-chloro-4-fluorophenyl)-1-methylethyl]-1-[4-fluoro-3-(methyloxy)phenyl]-1H-imidazol-2-yl}thio)methyl]-3,5-difluorophenyl}-N,N-dimethylpropan-1-amine]
EC50 (human TGR5 (h-TGR5); [1]): < 100 nM
EC50 (h-TGR5; [2]): < 100 nM

Structure (SMILES): CC(C)(c1ccc(Cl)c(Cl)c1)c1cnc(SCc2ccc(S(=O)(=O)NC(=O)NN3CCCC3)cc2Cl)n1-c1ccc(F)cn1 [3-chloro-4-[({5-[1-(3,4-dichlorophenyl)-1-methylethyl]-1-(5-fluoropyridin-2-yl)-1H-imidazol-2-yl}thio)methyl]-N-[(pyrrolidin-1-ylamino)carbonyl]benzenesulfonamide]
EC50 (human TGR5 (h-TGR5); [1]): 100 to 1000 nM
EC50 (h-TGR5; [2]): 100 to 1000 nM

Structure (SMILES): COc1cc(-n2c(C(C)(C)c3ccc4onc(N)c4c3)cnc2SCc2c(F)cc(C(=O)NC(CCCNC(=N)N)C(=O)O)cc2Cl)ccc1F [N-2-({4-[({5-[1-(3-amino-1,2-benzisoxazol-5-yl)-1-methylethyl]-1-[4-fluoro-3-(methyloxy)phenyl]-1H-imidazol-2-yl}thio)methyl]-3-chloro-5-fluorophenyl}carbonyl]-D-arginine]
EC50 (human TGR5 (h-TGR5); [1]): < 100 nM
EC50 (h-TGR5; [2]): < 100 nM

Structure (SMILES): CC(C)(c1ccc2nccnc2c1)c1nnc(SCc2c(F)cccc2Cl)n1-c1ccc(F)cc1 [Example 45]
EC50 (human TGR5 (h-TGR5); HEK 293 hTGR5/CRE-Luc cells, 6 hours incubation, luciferase activity, Table 2, read-out: h-TGR5CRE-Luc EC50 (CRE-Luc)): < 100 nM
EC50 (h-TGR5; hTGR5CRE-luc HEK 293 cells, htrf cAMP, Table 2, read-out: h-TGR5 cAMP EC50 (cAMP)): < 100 nM

Structure (SMILES): CC(C)(c1ccc(Cl)c(Cl)c1)c1cnc(SCc2c(F)cc(C(=O)O)cc2Cl)n1-c1ccc(F)cc1 [3-chloro-4-[({5-[1-(3,4-dichlorophenyl)-1-methylethyl]-1-(4-fluorophenyl)-1H-imidazol-2-yl}thio)methyl]-5-fluorobenzoic acid]
EC50 (human TGR5 (h-TGR5); [1]): < 100 nM
EC50 (h-TGR5; [2]): 100 to 1000 nM

Structure (SMILES): CC(C)(c1ccc2ccccc2c1)c1cnc(SCc2c(F)cc(C(=O)O)cc2F)n1-c1ccc(F)cc1 [3,5-difluoro-4-({[1-(4-fluorophenyl)-5-(1-methyl-1-naphthalen-2-ylethyl)-1H-imidazol-2-yl]thio}methyl)benzoic acid]
EC50 (human TGR5 (h-TGR5); [1]): 100 to 1000 nM
EC50 (h-TGR5; [2]): 100 to 1000 nM

Structure (SMILES): COc1ccc(C(C)(C)c2cnc(SCc3c(F)cccc3Cl)n2-c2ccc(F)cc2)cc1Cl [2-{[(2-chloro-6-fluorophenyl)methyl]thio}-5-{1-[3-chloro-4-(methyloxy)phenyl]-1-methylethyl}-1-(4-fluorophenyl)-1H-imidazole]
EC50 (human TGR5 (h-TGR5); [1]): < 100 nM
EC50 (h-TGR5; [2]): < 100 nM

Structure (SMILES): COCCOCCOCCOCCOCCOCCOCCOCCOCCOCCOCCOCCOCCOCCNS(=O)(=O)c1cc(F)c(CSc2ncc(C(C)(C)c3ccc(Cl)c(OC)c3)n2-c2ccc(F)cc2)c(Cl)c1 [3-chloro-4-({[5-{1-[4-chloro-3-(methyloxy)phenyl]-1-methylethyl}-1-(4-fluorophenyl)-1H-imidazol-2-yl]thio}methyl)-5-fluoro-N-3,6,9,12,15,18,21,24,27,30,33,36, 39,42-tetradecaoxatritetracont-1-ylbenzenesulfonamide]
EC50 (human TGR5 (h-TGR5); [1]): < 100 nM
EC50 (h-TGR5; [2]): < 100 nM

Now from value to compound:

EC50 (human TGR5 (h-TGR5); [1]): < 100 nM
EC50 (h-TGR5; [2]): < 100 nM
Structure (SMILES): COc1cc(-n2c(C(C)(C)c3ccc(Cl)c(Cl)c3)cnc2SCc2c(F)cc(C(=O)O)cc2F)ccc1F [4-[({5-[1-(3,4-dichlorophenyl)-1-methylethyl]-1-[4-fluoro-3-(methyloxy)phenyl]-1H-imidazol-2-yl}thio)methyl]-3,5-difluorobenzoic acid]

EC50 (human TGR5 (h-TGR5); [1]): 100 to 1000 nM
EC50 (h-TGR5; [2]): 100 to 1000 nM
Structure (SMILES): COc1ccc(C(C)(C)c2cnc(SCc3ccc(S(=O)(=O)NC(=O)NN4CCCC4)cc3Cl)n2-c2ccc(F)cc2)cc1Cl [3-chloro-4-({[5-{1-[3-chloro-4-(methyloxy)phenyl]-1-methylethyl}-1-(4-fluorophenyl)-1H-imidazol-2-yl]thio}methyl)-N-[(pyrrolidin-1-ylamino)carbonyl]benzenesulfonamide]

EC50 (human TGR5 (h-TGR5); [1]): < 100 nM
EC50 (h-TGR5; [2]): < 100 nM
Structure (SMILES): COc1cc(-n2c(C(C)(C)c3ccc(S(N)(=O)=O)c(Cl)c3)cnc2SCc2ccc(S(N)(=O)=O)cc2Cl)ccc1F [4-(1-{2-({[4-(aminosulfonyl)-2-chlorophenyl]methyl}thio)-1-[4-fluoro-3-(methyloxy)phenyl]-1H-imidazol-5-yl}-1-methylethyl)-2-chlorobenzenesulfonamide]

EC50 (human TGR5 (h-TGR5); [1]): 100 to 1000 nM
EC50 (h-TGR5; [2]): 100 to 1000 nM
Structure (SMILES): COc1cc(C(C)(C)c2cnc(SCc3ccc(S(=O)(=O)NC(=O)NN4CCCC4)cc3Cl)n2-c2ccc(F)cc2)ccc1Cl [3-chloro-4-({[5-{1-[4-chloro-3-(methyloxy)phenyl]-1-methylethyl}-1-(4-fluorophenyl)-1H-imidazol-2-yl]thio}methyl)-N-[(pyrrolidin-1-ylamino)carbonyl]benzenesulfonamide]

EC50 (human TGR5 (h-TGR5); [1]): < 100 nM
EC50 (h-TGR5; [2]): 100 to 1000 nM
Structure (SMILES): COc1cc(C(C)(C)c2cnc(SCc3ccc(F)cc3Cl)n2-c2ccc(F)cc2)ccc1Cl [2-{[(2-chloro-4-fluorophenyl)methyl]thio}-5-{1-[4-chloro-3-(methyloxy)phenyl]-1-methylethyl}-1-(4-fluorophenyl)-1H-imidazole]

EC50 (human TGR5 (h-TGR5); [1]): < 100 nM
EC50 (h-TGR5; [2]): < 100 nM
Structure (SMILES): COc1cc(C(C)(C)c2cnc(SCc3c(F)cc(S(=O)(=O)O)cc3Cl)n2-c2ccc(F)cc2)ccc1Cl [3-chloro-4-({[5-{1-[4-chloro-3-(methyloxy)phenyl]-1-methylethyl}-1-(4-fluorophenyl)-1H-imidazol-2-yl]thio}methyl)-5-fluorobenzenesulfonic acid]

EC50 (human TGR5 (h-TGR5); [1]): < 100 nM
EC50 (h-TGR5; [2]): 100 to 1000 nM
Structure (SMILES): CC(C)(O)COc1ccc(CSc2ncc(C(C)(C)c3ccc(Cl)c(Cl)c3)n2-c2ccc(F)cc2)cc1S(N)(=O)=O [5-[({5-[1-(3,4-dichlorophenyl)-1-methylethyl]-1-(4-fluorophenyl)-1H-imidazol-2-yl}thio)methyl]-2-[(2-hydroxy-2-methylpropyl)oxy]benzenesulfonamide]

EC50 (human TGR5 (h-TGR5); [1]): < 100 nM
EC50 (h-TGR5; [2]): < 100 nM
Structure (SMILES): CCCNC(=O)NS(=O)(=O)c1ccc(CSc2ncc(C(C)(C)c3ccc(Cl)c(OC)c3)n2-c2ccc(F)cc2)c(Cl)c1 [3-chloro-4-({[5-{1-[4-chloro-3-(methyloxy)phenyl]-1-methylethyl}-1-(4-fluorophenyl)-1H-imidazol-2-yl]thio}methyl)-N-[(propylamino)carbonyl]benzenesulfonamide]

EC50 (human TGR5 (h-TGR5); [1]): < 100 nM
EC50 (h-TGR5; [2]): < 100 nM
Structure (SMILES): CCOC(=O)NS(=O)(=O)c1ccc(CSc2ncc(C(C)(C)c3ccc(S(N)(=O)=O)c(Cl)c3)n2-c2ccc(F)c(OC)c2)c(Cl)c1 [ethyl [(4-{[(5-{1-[4-(aminosulfonyl)-3-chlorophenyl]-1-methylethyl}-1-[4-fluoro-3-(methyloxy)phenyl]-1H-imidazol-2-yl)thio]methyl}-3-chlorophenyl)sulfonyl]carbamate]
